Results: patent publication US7317007B2, “Benzothiazole derivatives with activity as adenosine receptor ligands” (Hoffmann-La Roche Inc., priority 2000, dated 2008)

How the values were obtained:
[1] = molecular target: T1, human adenosine A2A receptor (Homo sapiens, UniProt P29274); test: [3H]-SCH-58261 binding assay at the human adenosine A2A receptor; conditions: read-out: pKi value (converted)
T1 construct: expressed in transfected cells; host or cells: CHO cells, Semliki Forest virus expression system; washed membrane pellet used
T1 sequence (P29274 whole entry): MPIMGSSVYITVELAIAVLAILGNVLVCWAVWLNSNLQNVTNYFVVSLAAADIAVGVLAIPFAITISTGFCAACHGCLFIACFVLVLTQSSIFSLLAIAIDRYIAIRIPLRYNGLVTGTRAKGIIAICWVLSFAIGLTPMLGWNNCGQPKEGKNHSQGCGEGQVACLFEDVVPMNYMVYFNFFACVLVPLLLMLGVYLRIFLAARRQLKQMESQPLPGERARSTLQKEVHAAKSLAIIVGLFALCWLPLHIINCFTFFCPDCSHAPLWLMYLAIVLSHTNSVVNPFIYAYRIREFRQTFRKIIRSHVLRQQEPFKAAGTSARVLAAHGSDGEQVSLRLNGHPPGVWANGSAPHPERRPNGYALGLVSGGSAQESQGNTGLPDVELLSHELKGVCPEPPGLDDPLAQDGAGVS
Procedure: Human Adenosine A2A Receptor
The human adenosine A2A receptor was recombinantly expressed in chinese hamster ovary (CHO) cells using the semliki forest virus expression system. Cells were harvested, washed twice by centrifugation, homogenised and again washed by centrifugation. The final washed membrane pellet was suspended in a Tris (50 mM) buffer containing 120 mM NaCl, 5 mM KCl, 2 mM CaCl2 and 10 mM MgCl2 (pH 7.4) (buffer A). The [^3H]-SCH-58261 (Dionisotti et al., 1997, Br J Pharmacol 121, 353; 1 nM) binding assay was carried out in 96-well plates in the presence of 2.5 μg of membrane protein, 0.5 mg of Ysi-poly-1-lysine SPA beads and 0.1 U adenosine deaminase in a final volume of 200 μl of buffer A. Non-specific binding was defined using xanthine amine congener (XAC; 2 μM). Compounds were tested at 10 concentrations from 10 μM-0.3 nM. All assays were conducted in duplicate and repeated at least two times. Assay plates were incubated for 1 hour at room temperature before centrifugation and then bound ligand determined using a Packard Topcount scintillation counter. IC50 values were calculated using a non-linear curve fitting program and Ki values calculated using the Cheng-Prussoff equation.

Ki [1]: 3.16 nM
melting point: 58 to 78 °C
SMILES: COCCN(C)Cc1ccc(C(=O)Nc2nc3c(OC)ccc(-c4cccs4)c3s2)cc1 [Example 240, 4-{[(2-Methoxy-ethyl)-methyl-amino]-methyl}-N-(4-methoxy-7-thiophen-2-yl-benzothiazol-2-yl)-benzamide]
